Data taken from the NIST ThermoML archive (doi:10.1016/j.fluid.2016.02.005).

Conditions: Liquid, Closed cell (Static) method

C=C(F)C(F)(F)F [2,3,3,3-tetrafluoro-1-propene]
Conditions	vapor or sublimation pressure [kPa]
254.1 K	156.8
273.43 K	318.2
293.24 K	592.7
303.17 K	783.9
318.08 K	1153.4
332.97 K	1641.5
348.4 K	2288.8
